Assay results from patent publication US20200278355A1, “CONJUGATED PROTEINS AND USES THEREOF” (THE SCRIPPS RESEARCH INSTITUTE, priority 2017, published 2020).

Columns and labels:
[1] = test system: protein targets of BPK-29 in NSCLC cells (H460); assay: ABPP-SILAC competition of BPK-29yne labeling in H460 cells, proteome-wide; type: cell-based, human; conditions: beyond targets mapped by isoTOP-ABPP
Method: (§1) Isotopically labeled H460 cell lines were generated as described above. Light and heavy cells were treated with compounds (20 μM) or DMSO, respectively, for 3 h, followed by labeling with the BPK-29yne (5 μM) for 30 min. Cells were washed once ice-cold PBS and lysed in 1% Triton 100-X dissolved in PBS with protease inhibitors (Sigma) by sonication. Lysate was adjusted to 1.5 mg ml^−1 in 500 μL. Samples were conjugated by CuAAC to Biotin-PEG4-azide (5 μL of 10 mM stocks in DMSO, final concentration=100 μM). CuAAC “click” mix contained TCEP, TBTA ligand and CuSO4 as detailed for isoTOP-ABPP sample preparation. Samples were further processed as detailed in: isoTOP-ABPP streptavidin enrichment and isoTOP-ABPP trypsin TEV digestion with the following exception: after overnight incubation at 37° C. with trypsin, tryptic digests were separated from the beads with Micro Bio-Spin columns (Bio-Rad) by centrifugation (1,000×g, 1 min). Beads were rinsed once with water (200 μL) and combined with tryptic digests. […]
(§2) The MS2 spectra data were extracted and searched using RAW Convertor and ProLuCID algorithm as described in isoTOP-ABPP peptide and protein quantification. […] Ratios of heavy/light (DMSO/test compound) peaks were calculated using in-house CIMAGE software. […] The mean R values and standard deviation for multiple biological experiments were calculated from the average ratios from each replicate. […]

ALDH1A1 = target: T1, ALDH1A1 (Homo sapiens, UniProt P00352); assay: ABPP-SILAC BPK-29yne competition in H460 cells: ALDH1A1; type: cell-based; conditions: 20 μM
T1 construct: Isotopically labeled H460 cell lines were generated as described above; endogenous in cells; host or cells: H460 (SILAC-labelled)
T1 sequence (P00352 whole entry): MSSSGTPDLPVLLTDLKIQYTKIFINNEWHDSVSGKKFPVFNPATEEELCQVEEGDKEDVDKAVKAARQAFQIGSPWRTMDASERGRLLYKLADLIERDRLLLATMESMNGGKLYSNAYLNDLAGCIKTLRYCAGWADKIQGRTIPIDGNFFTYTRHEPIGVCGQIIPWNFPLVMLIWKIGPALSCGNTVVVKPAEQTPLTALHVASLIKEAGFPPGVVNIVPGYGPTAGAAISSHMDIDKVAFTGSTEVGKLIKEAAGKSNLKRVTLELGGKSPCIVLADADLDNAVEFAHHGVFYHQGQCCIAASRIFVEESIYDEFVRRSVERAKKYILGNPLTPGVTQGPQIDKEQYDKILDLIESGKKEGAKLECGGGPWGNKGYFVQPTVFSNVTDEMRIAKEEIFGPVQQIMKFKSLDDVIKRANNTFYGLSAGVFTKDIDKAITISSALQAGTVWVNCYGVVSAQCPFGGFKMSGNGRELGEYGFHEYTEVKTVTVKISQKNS
Method: as §1, §2

O=C(c1ccc(N2CCOCC2)cc1)N1CCCC(N(Cc2ccccc2)C(=O)CCl)CC1 (centres unmarked) [BPK-29, N-benzyl-2-chloro-N-(1-(4-morpholinobenzoyl)azepan-4-yl)acetamide]
further proteins engaged, found with the BPK-29yne probe [1]: seven | BPK-29-competed BPK-29yne analysis (ALDH1A1): Yes (Competed defined as showing R value ≥ 2.5 at 20 μM of test compound)
